Test results: patent publication US10093656B2, “Fused-ring or tricyclic aryl pyrimidine compound used as kinase inhibitor” (NANJING SANHOME PHARMACEUTICAL CO., LTD, priority 2015, dated 2018)

Legend:
[1] = test system: NCI-H1975 cells EGFR L858R/T790M; experiment: NCI-H1975 cell viability assay (Cell Titer-Glo, 6 days); assay type: cell-based; conditions: Homo sapiens, 144 h
Description: (§1) RPMI1640, fetal bovine serum, penicillin/streptomycin solution were purchased from Life Technology (Madison, Wis.). Cell Titer-Glo luminescent cell viability reagents were purchased from Promega (Madison, Wis.). A431 cell line and NCI-H1975 cell line were purchased from European Collection of Cell Cultures (ECACC). Plate Reader Instrument: Envision (PerkinElmer).
(§2) 384-Well plates, 300 of A431 cells and NCI-H1975 cells were inoculated per well, a volume of which was 45 μL. And the plates were incubated overnight in a CO2 incubator at 37° C. The test compound was diluted 3-fold to obtain 10 dose concentrations, the final concentrations of which were from 10 μM to 0.508 nM, two wells. The middle plates were filled with 49 μL of medium per well. 1 μL of compound in the gradient dilution compound plates was transferred to the middle plates and mixed well. And then 5 μL liquid in the middle plates was taken to the cell plates. The cells were incubated in a CO2 incubator for 6 days. After 6 days, 25 μL of detection reagents was added. And then the mixture was incubated at room temperature for 10 minutes and the plates were read by Envision.
(§3) The reading is converted to the suppression rate by the following formula (%) (Max-Sample)/(Max-Min)*100%. IC50 Data was measured by Four-parameter curve fitting (Model 205 in XLFIT5, IDBS).

EGFR wild type = biological target: T1, EGFR wild type (Homo sapiens, UniProt P00533); experiment: Wild-type EGFR enzyme HTRF inhibition assay; assay type: biochemical; conditions: 25 μM ATP, read-out: EGFR WT IC50
T1 construct: purchased Life technology (Madison, Wis.)
Description: (§4) Enzyme: EGFR wild type, EGFR T790M/L858R, EGFR T790M and INSR were purchased from Life technology (Madison, Wis.), EGFR d746-750/T790M was purchased from Carna Biosciences (Japan).
(§5) HTRF Kit was purchased from Cis-Bio International which contained the Eu-labeled TK1 antibody, XL665 and biotin-labeled TK1 polypeptide substrates.
(§6) Detecting instrument: Envision (PerkinElmer).
(§7) The test compound was diluted 3-fold to obtain 10 doses of which the final concentration was from 300 nM to 0.015 nM.
Wild-Type EGFR Enzyme Reaction Mixture System:
0.05 nM Wild-type EGFR, 1 μM biotin-TK1 peptide, 25 μM ATP enzyme buffer, a total of which was 10 μL. The reaction plate was white Proxiplate 384-Plus plate (PerkinElmer) and the mixture was reacted at 23° C. for 60 minutes.
(§8) Reaction Detection: 10 μL of detection reagent containing Antibody 2 nM and XL665 62.5 nM was added, and the reagent was incubated at 23° C. for 60 minutes. The plates were read by Envision.
(§9) The reading is converted to the suppression rate (%) by the following formula […]/(Max-Min)*100%. IC50 Data was measured by four-parameter curve fitting (Model 205 in XLFITS, IDBS).

A431 cells EGFR WT = experiment: A431 cell viability assay (Cell Titer-Glo, 6 days); assay type: cell-based, human; conditions: for IC50: Homo sapiens, A-431, 144 h, A431 cells, 6 days; for A431:NCI-H1975 (ratio): ratio of cell IC50 A431 to NCI-H1975
Description: as §1, §2, §3

EGFR d746-750/T790M = biological target: T2, EGFR d746-750/T790M (Homo sapiens, UniProt P00533, DEL746-750/T790M); experiment: EGFR d746-750/T790M enzyme HTRF inhibition assay; assay type: biochemical; conditions: 40 μM ATP
T2 construct: purchased Carna Biosciences (Japan)
Description: as §4, §5, §6, §7
EGFR d746-750/T790M Enzyme Reaction Mixture System:
0.025 nM EGFR d746-750/T790M, 1 μM biotin-TK1 peptide, 40 μM ATP enzyme buffer, a total of which was 10 μL. The reaction plate was white Proxiplate 384-Plus plate (PerkinElmer) and the mixture was reacted at 23° C. for 60 minutes.
as §8, §9

EGFR T790M/L858R = biological target: T3, EGFR T790M/L858R (Homo sapiens, UniProt P00533, L858R/T790M); experiment: EGFR T790M/L858R enzyme HTRF inhibition assay; assay type: biochemical; conditions: 20 μM ATP, read-out: EGFR L858R/T79M IC50
T3 construct: purchased Life technology (Madison, Wis.)
Description: as §4, §5, §6, §7
EGFR T790M/L858R Enzyme Reaction Mixture System:
0.04 nM EGFR T790M/L858R, 1 μM biotin-TK1 peptide, 20 μM ATP enzyme buffer, a total of which was 10 μL. The reaction plate was white Proxiplate 384-Plus plate (PerkinElmer) and the mixture was reacted at 23° C. for 60 minutes.
as §8, §9

[2] = test system: NCI-H1975 lung cancer patient-derived xenograft (CDX); experiment: Pharmacodynamics study in vivo, NCI-H1975 xenograft (CDX) model; design: species or system BALB/c nude mice; conditions: AZD9291 5 mg/kg; for Tumor Volume (mm^3) 4 days: day 4, oral daily: compound 30 10 mg/kg, 33, 34, 40, 42, 43 20 mg/kg; for Tumor Volume (mm^3) 7 days: day 7, oral daily: compound 30 10 mg/kg, 33, 34, 40, 42, 43 20 mg/kg; for Tumor Volume (mm^3) 11 days: day 11, oral daily: compound 30 10 mg/kg, 33, 34, 40, 42, 43 20 mg/kg; for Tumor Volume (mm^3) 14 days: day 14, oral daily: compound 30 10 mg/kg, 33, 34, 40, 42, 43 20 mg/kg; for Tumor Volume (mm^3) 18 days: day 18, oral daily: compound 30 10 mg/kg, 33, 34, 40, 42, 43 20 mg/kg
Description: For example, after 21 days of administration, the tumor volume of the representative compounds 30, 33, 34, 40, 42 and 43 decreased from the beginning of about 149 mm^3 to 3-39 mm^3.
The pharmacological experiments in vivo were performed on BALB/c nude mice that subcutaneously implanted NCI-H1975 lung cancer […] xenograft (CDX).
BALB/c nude mice, female, 6-8 weeks, weighted about 18-22 grams, the mice were kept in a special pathogen-free environment, and in a single ventilation cage (5 mice per cage). The bedding and water of all the cages were disinfected before use. All animals were free to obtain standard certified commercial laboratory diets. A total of 100 mice were purchased from Beijing Vital for research. The tumor tissue (20-30 mm^3) was implanted subcutaneously in the […] of each mouse for tumor growth. The experiment was started when the average tumor volume reached about 150-200 mm^3. The test compound was orally administered daily (compound 30 was administered at 10 mg/kg, compound 33, 34, 40, 42 and 43 were administered at 20 mg/kg and compound AZD9291 was administered continuously for 21 days at 5 mg/kg, the data were shown in Table 3). The tumor volume was measured twice a week with a two-dimensional caliper and the volume was measured in cubic millimeters and calculated by the following formula: V=V=0.5 a×b2, where a and b were the major and minor diameters of the tumor, respectively.

[3] = test system: human skin squamous cell A431 xenograft (CDX); experiment: Selectivity study in vivo, A431 xenograft (CDX) model; design: species or system BALB/c nude mice; conditions: Table 5 experiment, AZD9291 5 mg/kg; for Tumor Volume (mm^3) 4 days: day 4, oral once daily: 33, 34, 40, 42, 43 20 mg/kg; for Tumor Volume (mm^3) 11 days: day 11, oral once daily: 33, 34, 40, 42, 43 20 mg/kg; for Tumor Volume (mm^3) 18 days: day 18, oral once daily: 33, 34, 40, 42, 43 20 mg/kg
Description: In this model, the less inhibitory effect on the tumor, the better the selectivity in vivo.
The selective experiments in vivo were performed on BALB/c nude mice that subcutaneously implanted human skin squamous cell A431 xenograft (CDX).
BALB/c nude mice, female, 6-8 weeks, weighted about 18-20 grams, the mice were kept in a special pathogen-free environment and in a single ventilation cage (5 mice per cage). The bedding and water of all the cages were disinfected before use. All animals were free to obtain standard certified commercial laboratory diets. All mice were purchased from mice of Shanghai BK Laboratory Animal Co., LTD for research. The tumor tissue (20-30 mm^3) was implanted subcutaneously in the […] of each mouse for tumor growth. The experiment was started when the average tumor volume reached about 150-200 mm^3. The test compound was orally administered (compounds 17, 30, 37 and 38 were administered once daily at 20 mg/kg, the compound AZD9291 was administered once daily at 5 mg/kg, the compound CO-1686 was administered twice daily at 50 mg/kg, the compound Erlotinib was administered once daily at 75 mg/kg and the compound Afatinib was administered once daily at 7.5 mg/kg, 21 days of continuous administration. The data were shown in Table 4; compounds 33, 34, 40, 42 and 43 were administered once daily at 20 mg/kg and compound AZD9291 was administered once daily at5 mg/kg, 21 days of continuous administration. The tumor volume was measured twice a week with a two-dimensional caliper and the volume was measured in cubic millimeters and calculated by the following formula: V=V=0.5 a×b2, where a and b were the major and minor diameters of the tumor, respectively.

T2 sequence (P00533 with tags, fused parts or gaps DEL746-750/T790M limits assumed): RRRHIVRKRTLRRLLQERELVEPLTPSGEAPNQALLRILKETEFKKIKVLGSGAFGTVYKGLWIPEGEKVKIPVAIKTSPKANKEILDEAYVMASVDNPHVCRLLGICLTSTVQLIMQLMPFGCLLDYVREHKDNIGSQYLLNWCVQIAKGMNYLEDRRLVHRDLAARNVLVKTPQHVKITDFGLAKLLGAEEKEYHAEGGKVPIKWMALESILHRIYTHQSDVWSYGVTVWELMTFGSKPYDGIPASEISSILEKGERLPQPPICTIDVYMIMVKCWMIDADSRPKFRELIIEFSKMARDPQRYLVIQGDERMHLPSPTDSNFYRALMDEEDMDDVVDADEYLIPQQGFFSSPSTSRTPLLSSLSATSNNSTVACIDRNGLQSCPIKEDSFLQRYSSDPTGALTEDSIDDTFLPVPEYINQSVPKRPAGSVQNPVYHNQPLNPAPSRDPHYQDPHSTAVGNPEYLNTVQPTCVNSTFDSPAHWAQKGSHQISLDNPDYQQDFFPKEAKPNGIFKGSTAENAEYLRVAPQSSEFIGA
T3 sequence (P00533 25-1210 T790M/L858R): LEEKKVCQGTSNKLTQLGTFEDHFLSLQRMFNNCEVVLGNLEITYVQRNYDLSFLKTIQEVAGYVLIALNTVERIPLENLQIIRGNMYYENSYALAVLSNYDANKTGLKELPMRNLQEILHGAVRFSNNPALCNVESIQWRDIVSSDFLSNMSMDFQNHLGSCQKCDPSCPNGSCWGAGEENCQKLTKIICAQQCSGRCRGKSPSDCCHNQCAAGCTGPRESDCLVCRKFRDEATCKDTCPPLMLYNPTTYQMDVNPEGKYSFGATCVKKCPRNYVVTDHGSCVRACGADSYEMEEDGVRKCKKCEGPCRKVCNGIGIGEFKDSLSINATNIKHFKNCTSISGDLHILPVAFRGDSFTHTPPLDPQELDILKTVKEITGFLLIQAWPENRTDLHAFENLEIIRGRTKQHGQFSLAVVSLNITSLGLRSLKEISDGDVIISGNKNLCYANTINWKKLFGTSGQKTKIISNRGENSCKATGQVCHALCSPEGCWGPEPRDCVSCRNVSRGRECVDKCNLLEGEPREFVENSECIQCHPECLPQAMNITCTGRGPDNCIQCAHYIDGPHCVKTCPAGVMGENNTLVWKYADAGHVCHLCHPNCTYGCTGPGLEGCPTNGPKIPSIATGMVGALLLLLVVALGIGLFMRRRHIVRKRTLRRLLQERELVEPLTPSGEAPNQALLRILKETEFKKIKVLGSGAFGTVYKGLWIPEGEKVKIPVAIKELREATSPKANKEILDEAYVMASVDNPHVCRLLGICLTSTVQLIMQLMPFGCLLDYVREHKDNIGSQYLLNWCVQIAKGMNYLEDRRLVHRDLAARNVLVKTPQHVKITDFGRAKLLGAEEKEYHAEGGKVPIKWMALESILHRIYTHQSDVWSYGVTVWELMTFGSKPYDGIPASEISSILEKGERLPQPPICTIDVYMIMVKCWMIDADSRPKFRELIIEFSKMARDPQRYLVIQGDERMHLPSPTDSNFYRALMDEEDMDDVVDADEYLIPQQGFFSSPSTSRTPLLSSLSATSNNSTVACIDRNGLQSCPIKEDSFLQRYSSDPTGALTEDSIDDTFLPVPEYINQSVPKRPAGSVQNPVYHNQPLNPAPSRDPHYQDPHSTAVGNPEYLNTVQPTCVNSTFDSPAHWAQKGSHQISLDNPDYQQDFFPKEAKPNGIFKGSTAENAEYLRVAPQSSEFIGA
T1 sequence (P00533 25-1210): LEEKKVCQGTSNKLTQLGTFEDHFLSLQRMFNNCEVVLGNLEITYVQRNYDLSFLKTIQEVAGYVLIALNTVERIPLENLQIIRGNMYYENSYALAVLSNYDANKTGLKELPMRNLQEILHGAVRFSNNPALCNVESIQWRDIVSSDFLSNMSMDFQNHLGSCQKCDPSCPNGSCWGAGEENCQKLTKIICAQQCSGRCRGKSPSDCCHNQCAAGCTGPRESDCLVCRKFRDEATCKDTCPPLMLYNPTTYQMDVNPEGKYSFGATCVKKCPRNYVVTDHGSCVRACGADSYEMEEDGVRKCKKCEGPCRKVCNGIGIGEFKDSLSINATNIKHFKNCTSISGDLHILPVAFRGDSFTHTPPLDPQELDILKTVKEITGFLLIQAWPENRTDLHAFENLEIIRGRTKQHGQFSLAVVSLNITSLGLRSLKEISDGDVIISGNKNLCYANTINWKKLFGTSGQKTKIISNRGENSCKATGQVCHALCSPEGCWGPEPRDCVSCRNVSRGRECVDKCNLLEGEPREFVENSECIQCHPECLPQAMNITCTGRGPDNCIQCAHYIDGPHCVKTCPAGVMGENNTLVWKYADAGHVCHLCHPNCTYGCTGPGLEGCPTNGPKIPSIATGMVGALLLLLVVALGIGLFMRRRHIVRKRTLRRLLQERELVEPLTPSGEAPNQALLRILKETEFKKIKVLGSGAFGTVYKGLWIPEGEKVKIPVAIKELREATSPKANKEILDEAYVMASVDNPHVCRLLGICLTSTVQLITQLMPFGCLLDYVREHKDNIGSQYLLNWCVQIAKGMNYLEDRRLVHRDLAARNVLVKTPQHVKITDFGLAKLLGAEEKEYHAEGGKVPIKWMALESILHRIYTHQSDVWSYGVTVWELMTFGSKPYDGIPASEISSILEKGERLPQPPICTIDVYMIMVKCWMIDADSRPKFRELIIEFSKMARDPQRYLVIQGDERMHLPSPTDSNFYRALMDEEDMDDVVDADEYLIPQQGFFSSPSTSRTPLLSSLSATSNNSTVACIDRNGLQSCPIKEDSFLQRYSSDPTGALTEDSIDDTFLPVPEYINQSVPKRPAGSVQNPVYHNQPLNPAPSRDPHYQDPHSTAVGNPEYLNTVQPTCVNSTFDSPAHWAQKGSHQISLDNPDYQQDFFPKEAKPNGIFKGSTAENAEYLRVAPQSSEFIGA

Structure (SMILES)	IC50 [1] [nM]	IC50 (EGFR wild type) [nM]	IC50 (A431 cells EGFR WT) [nM]	IC50 (EGFR d746-750/T790M) [nM]	IC50 (EGFR T790M/L858R) [nM]	A431:NCI-H1975 (ratio) (A431 cells EGFR WT)	Tumor Volume (mm^3) 4 days [2] [mm^3]	Tumor Volume (mm^3) 7 days [2] [mm^3]	Tumor Volume (mm^3) 11 days [2] [mm^3]	Tumor Volume (mm^3) 14 days [2] [mm^3]	Tumor Volume (mm^3) 18 days [2] [mm^3]	Tumor Volume (mm^3) 4 days [3] [mm^3]	Tumor Volume (mm^3) 11 days [3] [mm^3]	Tumor Volume (mm^3) 18 days [3] [mm^3]
C=CC(=O)Nc1cc(Nc2ncc(F)c(-c3c4n(c5cc(Cl)ccc35)CCOC4)n2)c(OC)cc1N(C)CCN(C)C [Embodiment 34, N-(5-((4-(7-Chloro-3,4-dihydro-1H-[1,4]oxazino[4,3-a]indol-10-yl)-5-fluoropyrimidin-2-yl)amino)-2-((2-(dimethylamino)ethyl)(methyl)amino)-4-methoxyphenyl)acrylamide]	68	2	2100	0.6	0.8	31	102	80	70	59	35	237	646	1357
C=CC(=O)Nc1cc(Nc2ncc(F)c(-c3c4n(c5c(OC)cccc35)CCOC4)n2)c(OC)cc1N(C)CCN(C)C [Embodiment 35, N-(2-((2-(Dimethylamino)ethyl)(methyl)amino)-5-((5-fluoro-4-(6-methoxy-3,4-dihydro-1H-[1,4]oxazino[4,3-a]indol-10-yl)pyrimidin-2-yl)amino)-4-methoxyphenyl)acrylamide]	107	1.5	971	0.6	1.2	9.1								
C=CC(=O)Nc1cc(Nc2ncc(F)c(-c3c4n(c5ccccc35)C(C)(C)COC4)n2)c(OC)cc1N(C)CCN(C)C.CS(=O)(=O)O [Embodiment 36, N-(5-((4-(4,4-Dimethyl-3,4-dihydro-1H-[1,4]oxazino[4,3-a]indol-10-yl)-5-fluoropyrimidin-2-yl)amino)-2-((2-(dimethylamino)ethyl)(methyl)amino)-4-methoxyphenyl)acrylamide methanesulfonate]	175	2.7	438	1.3	1.3	2.5								
C=CC(=O)Nc1cc(Nc2ncc(F)c(-c3c4n(c5ncccc35)CCOC4)n2)c(OC)cc1N(C)CCN(C)C [Embodiment 39, N-(5-((4-(8,9-Dihydro-6H-pyrido[2,3]pyrrolo[4,5-α][1,4]oxazin-5-yl)-5-fluoropyrimidin-2-yl)amino)-2-((2-(dimethylamino)ethyl)(methyl)amino)-4-methoxyphenyl)acrylamide]	288	5.3	1570	0.6	0.5	5.5								

Second part, led by results:

IC50 [1] [nM]	IC50 (EGFR wild type) [nM]	IC50 (A431 cells EGFR WT) [nM]	IC50 (EGFR d746-750/T790M) [nM]	IC50 (EGFR T790M/L858R) [nM]	Structure (SMILES)	A431:NCI-H1975 (ratio) (A431 cells EGFR WT)	Tumor Volume (mm^3) 4 days [2] [mm^3]	Tumor Volume (mm^3) 7 days [2] [mm^3]	Tumor Volume (mm^3) 11 days [2] [mm^3]	Tumor Volume (mm^3) 14 days [2] [mm^3]	Tumor Volume (mm^3) 18 days [2] [mm^3]	Tumor Volume (mm^3) 4 days [3] [mm^3]	Tumor Volume (mm^3) 11 days [3] [mm^3]	Tumor Volume (mm^3) 18 days [3] [mm^3]
3	0.3	597	0.2	0.1	C=CC(=O)Nc1cc(Nc2ncc(F)c(-c3c4n(c5ccccc35)CCOC4)n2)c(OC)cc1N(C)CC(C)(C)N(C)C [Embodiment 32, N-(5-((4-(3,4-Dihydro-1H-[1,4]oxazino[4,3-a]indol-10-yl)-5-fluoropyrimidin-2-yl)amino)-2-((2-(dimethylamino)-2-methylpropyl)(methyl)amino)-4-methoxyphenyl)acrylamide]	199								
201	4.9	1720	2.6	1.5	C=CC(=O)Nc1cc(Nc2nccc(-c3cn4c5c(cccc35)OCC(C)(C)C4)n2)c(OC)cc1N(C)CCN(C)C [Embodiment 41, N-(5-((4-(3,3-Dimethyl-3,4-dihydro-2H-[1,4]oxazepino[2,3,4-hi]indol-7-yl)pyrimidin-2-yl)amino)-2-((2-(dimethylamino)ethyl)(methyl)amino)-4-methoxyphenyl)acrylamide]	8.5								
264		548			C=CC(=O)Nc1cc(Nc2nccc(-c3cn4c5c(cccc35)OC3(CC3)C4)n2)c(OC)cc1N(C)CC(C)(C)N(C)C [Embodiment 43, N-(5-((4-(3H-Spiro[[1,4]oxazino[2,3,4-hi]indole-2,1′-cyclopropan]-6-yl)pyrimidin-2-yl)amino)-2-((2-(dimethylamino)-2-methylpropyl)(methyl)amino)-4-methoxyphenyl)acrylamide]	2.1	92	65	61	45	23	238	516	820
